Results on four compounds are retold here after patent US20030187075A1, “Sponge antitumor compounds” (priority 2000, published 2003).

What all share (format): cell-based
One assay concerns A549 (Human Lung). The experiment in a line: Antitumoral activity, cytotoxicity against A549. The settings on record: A549 (Human Lung) cells.
The subject of another assay is P388 Leukaemia. As to the kind of experiment: Antitumoral activity, cytotoxicity against P388. Conditions: Mus musculus; P388 Leukaemia cells.
The test system of another assay is MEL28 (Melanoma). As to the kind of experiment: Antitumoral activity, cytotoxicity against MEL28. The settings on record: Homo sapiens, SK-MEL-28; MEL28 (Melanoma) cells.
In the next assay the test system is HT29 (Human Colon). As to the kind of experiment: Antitumoral activity, cytotoxicity against HT29. Conditions: HT-29; HT29 (Human Colon) cells.

In brackets after ≈: the same amount, converted by molar mass.

For `C=C(CC[C@@H]1C(=C)CC[C@H](Cl)C1(C)C)C(Cl)CN=C(Cl)Cl` (stereo partly shown) [Compound 1], the half-maximal inhibitory concentration (IC50) in the assay with A549 (Human Lung) is 0.1 µg/mL (≈ 0.269 µM); in the assay with P388 Leukaemia, 1 µg/mL (≈ 2.69 µM); in the assay on MEL28 (Melanoma) it was 0.1 µg/mL (≈ 0.269 µM); in the assay with HT29 (Human Colon), 0.1 µg/mL (≈ 0.269 µM).
Turning to `CC1(C)[C@@H](Cl)[C@@H](O)C[C@]2(C)C/C(=C/C=O)CC[C@@H]12` [Compound 2], the IC50 with A549 (Human Lung), with P388 Leukaemia, in the assay on MEL28 (Melanoma) and with HT29 (Human Colon) was 1 µg/mL (≈ 3.69 µM) each time.
Consider `CC1(C)[C@@H](Cl)[C@@H](O)C[C@]2(C)C/C(=C\C=O)CC[C@@H]12` [Compound 3], for which the IC50 in the assay on A549 (Human Lung), in the assay with P388 Leukaemia, with MEL28 (Melanoma) and with HT29 (Human Colon) was 1 µg/mL (≈ 3.69 µM) each time.
Take `CC1(C)[C@@H](Cl)CC[C@]2(C)C=C(C=CN=C(Cl)Cl)CC[C@@H]12` [Compound 4]: the IC50 in the assay with A549 (Human Lung), in the assay with P388 Leukaemia, in the assay on MEL28 (Melanoma) and in the assay on HT29 (Human Colon) was 1 µg/mL (≈ 2.99 µM) in each case.

One may read the IC50 as the point on the concentration scale where inhibition reaches its midpoint. Higher therefore signals weaker potency in that assay.
